Assay results from patent publication US7829662B2, “Method of treating apoptosis and compositions thereof” (Dana Farber Cancer Institute, Inc., priority 2001, dated 2010).
Entries after “also recorded” stand apart in the source; their conditions may differ.

How the values were obtained:
[1] = system: mitochondria; test: Cytochrome c release from isolated liver mitochondria (immunoblot densitometry or ELISA); assay type: biochemical, Balb/cJ mice
Description: Mitochondria were isolated from liver of Balb/cJ mice by standard differential centrifugation, and resuspended in isolation buffer (IB) (0.2 M sucrose, 10 mM Tris-MOPS pH 7.4, 0.1 mM EGTA-Tris, 0.1% delipidated BSA).
At the indicated time, mitochondria were pelleted by centrifugation at 12000×g at 4° C. for 3 min, and resuspended in the same volume of EB. Cytochrome c release was determined either by densitometry (Stratagene Eagle Eye II, BioRad) of immunoblots, or by rat/mouse specific ELISA performed on mitochondrial pellet and supernatant diluted 1:20 in PBS containing 0.5% Triton X-100 (R&D systems, MN). Cytochrome c is reported as the percentage of the supernatant over the total (pellet plus supernatant).
For SDS-PAGE, 20 μg of mitochondrial protein was loaded in each lane of a 12% NuPAGE (NoVex, CA) gel. After separation, proteins were transferred onto PVDF membranes (Immobilon-P, Millipore, Calif.) and membranes were probed as indicated with the following primary antibodies: anti-cytochrome c (Pharmingen, CA, 1:1000); anti-BID (1:1500); anti-BAK (Calbiochem, CA, 1:1000). HRPO-conjugated secondary antibodies (CalTag, CA, 1:2000) were visualized by chemiluminescence (Amersham, N.J.).
(§1) Mitochondria were incubated with increasing amounts of digitonin to assess how much cytochrome c was released from IMS by the selective solubilization of the OM (Hoppel and Cooper, 107, 367-375, 1968). To monitor interaction of digitonin with the […], uncoupled respiration in the presence of excess exogenous cytochrome c was assessed. Specifically 0.5 mg/ml mitochondria was incubated in EB with the indicated concentration of digitonin. After 5 minutes, mitochondria were centrifuged and cytochrome c content in the resulting pellet and supernatant were determined as described. Uncoupled JO2, uncoupled respiratory rate was recorded in parallel experiments. After 5 minutes of incubation with the indicated concentration of digitonin, mitochondria were treated with 400 pmol CCCP×mg protein-1 in the presence of 10 nmol cytochrome c×mg protein.

[2] = system: mitochondria; test: Mitochondrial swelling by side scatter at 545 nm; assay type: biochemical, Balb/cJ mice; settings: 10 μM 14mer
Description: tBID was evaluated to determine if it causes any swelling or depolarization that might reflect an opening of the PTP. Swelling of 0.5 mg/ml mitochondria incubated in EB was monitored by changes in side scatter at 545±2.5 nm using LS-50B spectrofluorimeter equipped with magnetic stirring at 25° C. Membrane potential changes of 0.5 mg/ml mitochondria incubated in experimental buffer were monitored from the dequenching of a 0.3 μM Rhodamine 123 (Molecular Probes, OR) solution in a LS-50B spectrofluorimeter at 25° C., using excitation and emission wavelengths set at 503±2.5 nm and 525±5 nm, respectively.
To determine if the BID α6 14mer (SEQ ID NO:1) induced mitochondrial swelling or release of cytochrome c across the mitochondrial outer membrane, mitochondria at 1 mg/ml were incubated in experimental buffer and, where indicated, 20 μM Ca^2+ and 10 μM 14mer were added. Where noted, mitochondria were preincubated with CsA. […] Mitochondria were incubated with 10 μM 14mer in the presence or in the absence of 1 μM CsA. At the indicated time in minutes, mitochondria were pelleted by centrifugation and cytochrome c in the pellet and in the supernatant was determined.

[3] = system: calcein loaded mitochondria; test: Release of matrix-entrapped calcein (transient PTP opening); assay type: biochemical, Balb/cJ mice; settings: 10 μM BID α6 14mer
Description: To assess calcein release, mitochondria suspended in IB without BSA were loaded with 10 nmol×mg protein^−1 calcein-AM (Molecular Probes, Eugene, Oreg.) for 20 mins at room temperature in the dark. Following two washes in IB, the calcein loaded mitochondria were resuspended in IB at a final concentration of 10 mg/ml. 0.5 mg/ml calcein loaded mitochondria were incubated in EB and treated as described. After the indicated time, mitochondria were pelleted. Calcein was measured in an LS-50B spectrofluorimeter (Perkin Elmer) with excitation and emission wavelengths set at 488±2.5 nm and 542±2.5 nm, respectively.
After 30 min mitochondria were spun at 14000 g for 3 min at 4 C and the calcein content in the pellet and in the supernatant was determined. […] To determine if a BID α6 mutation variant, BID α6 mutein (SEQ ID NO:7), would inhibit cytochrome c release, His-tag p22 wt BID and the BID α6 mutein were expressed, purified on a Ni^2+ column, and cleaved with caspase 8.
Mitochondria were loaded with calcein and treated with 10 μM BID α6 14mer. Where noted, mitochondria were pretreated with 1 μM CsA. At the indicated time, mitochondria were pelleted by centrifugation and calcein in the pellet and in the supernatant was determined.

[4] = system: BAK; test: BAK oligomerization (BMH crosslinking, anti-BAK immunoblot); assay type: biochemical, Balb/cJ mice; settings: 10 μM BID α6 14mer, 30 min
Description: In lanes 7-8 mitochondria were pretreated with 800 pmol CsA×mg protein^−1 for 3 mins. After the indicated time, DMSO (lanes 1-2) or 10 mM BMH (lanes 3-8) was added, and after another 30 min the crosslinking reaction was quenched (Wei et al., 2001). The mitochondria were subjected to SDS-PAGE and immunoblot with anti BAK antibody. Star, BAK multimers.
To also determine if the BID α6 14mer (SEQ ID NO:1) modulated BAK oligomerization, mitochondria were incubated for 30 min with 10 μM BID α6 14mer in the presence or in the absence of 1 μM CsA. Crosslinking with BMH, SDS-PAGE and anti BAK immunoblotting was carried out.

[5] = system: wt mitochondria; test: Cytochrome b5-dependent NADH oxidation assay; assay type: biochemical, Balb/cJ mice; settings: 10 μM BID α6 14mer, 20 min
Description: (d), mitochondria were preincubated for 2 min with 800 pmol CsA×mg protein^−1. (a), no additions. After 15 min, respiratory chain inhibitors were added and after another 2 minutes NADH fluorescence reading started. Arrow, 20 nmol NADH×mg protein^−1. In (e), 200 nmol mersalyl×mg protein was added 1 min before NADH.
In the cytochrome b5-dependent NADH oxidation assay, 1 mg/ml mitochondria were incubated in EB and treated as indicated. 400 pmol CCCP, 2 nmol rotenone and 1 nmol antimycin A×mg protein^−1 were added after the time indicated and the reaction transferred to a cuvette. After 2 min, 10 μM NADH was added and its oxidation monitored as the decrease in NADH fluorescence in a LS50B spectrofluorimeter (Perkin Elmer) set with λex=366 nm and λem=455 nm, with 5 nm slits.

[6] = system: mitochondria; test: Uncoupled respiration (JO2) of digitonin-treated mitochondria; assay type: biochemical, Balb/cJ mice; settings: CCCP, exogenous cytochrome c
Description: as §1, with “protein. Approximately 16% of the total cytochrome c could be released by digitonin without substantial respiratory inhibition (no interference of digitonin with the IM) (Table 1), a percentage in agreement with the pool of cytochrome c estimated to reside in the IMS (Bernardi and Azzone, 1981). Therefore, tBID must deploy additional events to enable the release of nearly all cytochrome c from the mitochondrion.” for “protein.”

[7] = system: Bak −/− mitochondria; test: Digitonin releasable cytochrome c pool; assay type: biochemical; settings: digitonin concentration that does not interfere with IM function (80 pmol × mg protein^−1, 5 mins)

Row | Compound | release of cytochrome c across the mitochondrial outer membrane ([1]; 10 μM 14mer) | mitochondrial swelling [2] | calcein release (onset of transient PT) [3] | BAK oligomerization [4] | mobilization of cytochrome c (cytochrome b5-dependent NADH oxidation) [5] | Cytochrome c release (% of total) ([1]; Digitonin 48 pmol × mg protein^−1, 5 minutes) | Cytochrome c release (% of total) ([1]; Digitonin 80 pmol × mg protein^−1, 5 minutes) | Cytochrome c release (% of total) ([1]; Digitonin 145 pmol × mg protein^−1, 5 minutes) | total cytochrome c released by digitonin ([1]; without substantial respiratory inhibition) | Uncoupled JO2 ([6]; Digitonin 48 pmol × mg protein^−1) | Uncoupled JO2 ([6]; Digitonin 80 pmol × mg protein^−1) | Uncoupled JO2 ([6]; Digitonin 145 pmol × mg protein^−1) | release of total cytochrome c by digitonin [7] [%]
1 | NH2-XMLXXXXLLAKKVA—COOH [BID α6 14mer, 14 amino acid peptide of the BID α6 helix] | nor did it trigger the actual release of cytochrome c across the mitochondrial outer membrane; also recorded: does not cause cytochrome c release across the outer membrane | did not induce swelling of mitochondria; also recorded: does not induce mitochondrial swelling | resulted in the efflux of mitochondrial matrix entrapped calcein; also recorded: causes calcein release from mitochondria | did not result in BAK oligomerization; also recorded: does not induce BAK oligomerization | induced the mobilization of cytochrome c; also recorded: induces cytochrome c redistribution | – | – | – | – | – | – | – | –
2 | C[C@@H]1CC[C@@]2(OC1)O[C@H]1[C@@H](O)[C@H]3[C@@H]4CC[C@H]5C[C@@H](O[C@@H]6O[C@H](CO)[C@H](O[C@@H]7O[C@H](CO)[C@@H](O)[C@H](O[C@@H]8OC[C@@H](O)[C@H](O)[C@H]8O)[C@H]7O[C@@H]7O[C@H](CO)[C@H](O)[C@H](O[C@@H]8O[C@H](CO)[C@@H](O)[C@H](O)[C@H]8O)[C@H]7O)[C@H](O)[C@H]6O)[C@H](O)C[C@]5(C)[C@H]4CC[C@]3(C)[C@H]1[C@@H]2C [Digitonin] | – | – | – | – | – | 10.7 % of total | 16.4 % of total | 26.6 % of total | Approximately 16% | 60 nAt × min^−1 × mg protein^−1 | 60 nAt × min^−1 × mg protein^−1 | 46.7 nAt × min^−1 × mg protein^−1 | 19.2±4.8
